Data as given in patent US7572753B2 (priority 2005, dated 2009).

Tested on: Pyricularia oryzae
Assay type: in vivo
Settings: 300 ppm, greenhouse foliar application spray on rice (var. Lemont) plants, inoculated within 24 hours from spraying

## N#CCn1nnc(-c2ccccc2)n1 [Example 1, 5-phenyl-2H-tetrazole-2-acetonitrile]
  Percent (%) disease control, Rice Blast: 70%
